From PMC8940841, “A metabolically stable PET tracer for imaging synaptic vesicle protein 2A: synthesis and preclinical characterization of [^18F]SDM-16” (European Journal of Nuclear Medicine and Molecular Imaging, 2021)

Tests used:
[1] = Free base fraction in plasma by modified Henderson-Hasselbalch equation (Eq. 1); conditions: Eq. 1, plasma pH 7.4
[2] = Brain PET imaging with 1TC kinetic modeling; conditions: rhesus monkey, intravenous; for Kp / half-life: both
SV2A [3] = test: Brain PET imaging with 1TC kinetic modeling; conditions: for VT (baseline): 1TC
[4] = LEV blocking and displacement PET scans, Lassen plot; format: in vivo, rhesus monkeys (Macaca mulatta); conditions: male, rhesus monkey, intravenous
Description: (§1) Four monkeys were studied.
(§2) To examine the in vivo binding specificity, SV2A occupancy, and the extent of nonspecific binding in the monkey brain, we performed the Lassen plot analysis using data from the two baseline scans and one blocking scan in the same monkey.

[5] = Plasma free fraction (fp) by ultrafiltration; format: in vitro ADME, rhesus monkey; conditions: monkey, plasma (separated from spiked whole blood)
Procedure: The unbound fraction of [^18F]SDM-16 in plasma (fp) of rhesus monkey was measured in triplicate using the ultrafiltration method. Briefly, [^18F]SDM-16 solution was added to 3 mL of whole blood. After incubation at ambient temperature for 5 min, the blood sample was centrifuged at 3900 rpm for 5 min. A sample of the supernatant plasma (0.3 mL) was loaded onto the reservoir of a Centrifree® Ultrafiltration device (Merck Millipore Ltd. Tullagreen, Carrigtwohill, Co. Cork, IRELAND) in triplicate and centrifuged at 1228 g for 20 min. The fp value was calculated as the ratio of radioactivity in the filtrate to that in the plasma.

SV2A [6] = biological target: SV2A (Macaca mulatta, UniProt H9EQH8); test: LEV blocking and displacement PET scans, Lassen plot; format: in vivo, rhesus monkeys (Macaca mulatta); set-up: from tissue; host or cells: brain of living rhesus monkeys (in vivo PET); conditions: for VT (blocking): LEV 30 mg/kg i.v.
Sequence of SV2A (Macaca mulatta, UniProt H9EQH8) (H9EQH8 1-742): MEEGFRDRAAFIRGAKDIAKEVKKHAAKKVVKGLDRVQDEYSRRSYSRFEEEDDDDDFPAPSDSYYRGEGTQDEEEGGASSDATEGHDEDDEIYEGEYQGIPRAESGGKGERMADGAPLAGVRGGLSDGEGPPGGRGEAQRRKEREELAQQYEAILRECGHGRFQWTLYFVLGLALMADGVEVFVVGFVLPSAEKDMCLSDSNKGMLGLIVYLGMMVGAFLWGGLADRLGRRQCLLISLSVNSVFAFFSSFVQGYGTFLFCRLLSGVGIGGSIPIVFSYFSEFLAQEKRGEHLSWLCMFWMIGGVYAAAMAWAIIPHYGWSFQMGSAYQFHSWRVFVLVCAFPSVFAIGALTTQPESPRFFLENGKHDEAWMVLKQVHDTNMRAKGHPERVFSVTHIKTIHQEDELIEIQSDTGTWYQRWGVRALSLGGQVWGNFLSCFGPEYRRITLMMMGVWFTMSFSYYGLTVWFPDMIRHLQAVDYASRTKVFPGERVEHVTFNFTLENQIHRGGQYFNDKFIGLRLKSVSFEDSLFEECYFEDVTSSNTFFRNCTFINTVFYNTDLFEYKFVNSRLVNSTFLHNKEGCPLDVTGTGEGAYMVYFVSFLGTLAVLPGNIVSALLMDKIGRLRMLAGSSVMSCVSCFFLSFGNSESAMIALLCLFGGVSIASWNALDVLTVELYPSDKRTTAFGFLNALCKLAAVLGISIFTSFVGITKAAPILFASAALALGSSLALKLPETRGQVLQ
Description: as §1, §2

fraction present in plasma as free base [1]: 30%
Kp ([2]; brain (caudate)): 21.6 ± 4.9
Kp ([2]; brain (centrum semiovale)): 6.6
half-life ([2]; brain (centrum semiovale)): 1.38 ± 0.3 h
Kp ([2]; brain (cerebellum)): 21.5 ± 3
Kp ([2]; brain (cingulate cortex)): 31.3
half-life ([2]; brain (insular cortex)): 2.53 ± 0.817 h
Kp ([2]; brain (putamen)): 26 ± 6.8
Kp ([2]; brain (thalamus)): 21.6 ± 4.9
fraction unbound ([2]; brain tissue): 0.27
K1 (SV2A [3]; Amygdala): 0.10 ± 0.02 mL/cm^3 per min
VT (baseline) (SV2A [3]; Amygdala): 11.2 ± 2.0 mL/cm^3
K1 (SV2A [3]; Anterior cingulate): 0.15 ± 0.01 mL/cm^3 per min
K1 (SV2A [3]; Brainstem): 0.14 ± 0.02 mL/cm^3 per min
VT (baseline) (SV2A [3]; Brainstem): 14.1 ± 1.7 mL/cm^3
K1 (SV2A [3]; Caudate): 0.13 ± 0.02 mL/cm^3 per min
VT (baseline) (SV2A [3]; Centrum semiovale): 6.6 ± 0.9 mL/cm^3
K1 (SV2A [3]; Cerebellum): 0.18 ± 0.02 mL/cm^3 per min
K1 (SV2A [3]; Cingulate cortex): 0.15 ± 0.00 mL/cm^3 per min
VT (baseline) (SV2A [3]; Cingulate cortex): 31.3 ± 7.8 mL/cm^3
K1 (SV2A [3]; Frontal cortex): 0.14 ± 0.00 mL/cm^3 per min
VT (baseline) (SV2A [3]; Frontal cortex): 27.9 ± 6.8 mL/cm^3
K1 (SV2A [3]; Globus pallidus): 0.11 ± 0.01 mL/cm^3 per min
VT (baseline) (SV2A [3]; Globus pallidus): 17.2 ± 3.5 mL/cm^3
K1 (SV2A [3]; Hippocampus): 0.12 ± 0.02 mL/cm^3 per min
VT (baseline) (SV2A [3]; Hippocampus): 17.9 ± 2.5 mL/cm^3
K1 (SV2A [3]; Insular cortex): 0.14 ± 0.01 mL/cm^3 per min
VT (baseline) (SV2A [3]; Insular cortex): 29.8 ± 8.0 mL/cm^3
K1 (SV2A [3]; Mean ± SD over brain regions): 0.14 ± 0.03 mL/cm^3 per min
K1 (SV2A [3]; Nucleus accumbens): 0.13 ± 0.01 mL/cm^3 per min
VT (baseline) (SV2A [3]; Nucleus accumbens): 29.4 ± 8.5 mL/cm^3
K1 (SV2A [3]; Occipital cortex): 0.18 ± 0.02 mL/cm^3 per min
VT (baseline) (SV2A [3]; Occipital cortex): 29.5 ± 5.5 mL/cm^3
K1 (SV2A [3]; Putamen): 0.16 ± 0.02 mL/cm^3 per min
K1 (SV2A [3]; Temporal cortex): 0.14 ± 0.01 mL/cm^3 per min
VT (baseline) (SV2A [3]; Temporal cortex): 27.3 ± 5.7 mL/cm^3
K1 (SV2A [3]; Thalamus): 0.14 ± 0.02 mL/cm^3 per min
SUV (brain tracer uptake) (SV2A [3]; baseline scan, end of scan, frontal cortex and putamen): about 10
averaged VT as percent of that of [^11C]UCB-A (SV2A [3]; rhesus monkey, in vivo): 59%
regional K1 lower than [^11C]UCB-J (SV2A [3]; rhesus monkey, in vivo): 82%
regional K1 lower than [^18F]SynVesT-1 (SV2A [3]; rhesus monkey, in vivo): 86%
in vivo defluorination (radioactivity in skull) (SV2A [3]; up to 4-h p.i.): lack of in vivo defluorination
Kp ([4]; brain (caudate), Caudate, LEV 30 mg/kg i.v., read-out: VT (blocking)): 7.7
Kp ([4]; brain (putamen), Putamen, LEV 30 mg/kg i.v., read-out: VT (blocking)): 8.8
Kp ([4]; brain (thalamus), Thalamus, LEV 30 mg/kg i.v., read-out: VT (blocking)): 8.2
Kp ([4]; brain, Lassen plot, read-out: VND): 2.54
fraction unbound at 5 min [5]: 0.69
VT (blocking) (SV2A [6]; Amygdala): 4.5 mL/cm^3
VT (blocking) (SV2A [6]; Brainstem): 4.5 mL/cm^3
VT (blocking) (SV2A [6]; Centrum semiovale): 3.4 mL/cm^3
VT (blocking) (SV2A [6]; Cerebellum): 6.6 mL/cm^3
VT (blocking) (SV2A [6]; Cingulate cortex): 10.4 mL/cm^3
VT (blocking) (SV2A [6]; Frontal cortex): 9.5 mL/cm^3
VT (blocking) (SV2A [6]; Globus pallidus): 6.9 mL/cm^3
VT (blocking) (SV2A [6]; Hippocampus): 5.9 mL/cm^3
VT (blocking) (SV2A [6]; Insular cortex): 10.3 mL/cm^3
reduction of tracer uptake in LEV displacement (SV2A [6]; LEV 30 mg/kg i.v. at 120 min p.i., averaged from 5 brain regions, SUV at 4 h p.i. vs 180 min baseline): 58 ± 8%
VT (blocking) (SV2A [6]; Nucleus accumbens): 10.5 mL/cm^3
VT (blocking) (SV2A [6]; Occipital cortex): 8.3 mL/cm^3
VT (blocking) (SV2A [6]; Temporal cortex): 8.6 mL/cm^3
BPND in the LEV blocking scan (SV2A [6]; cingulate cortex and nucleus accumbens, 79% SV2A occupied by LEV): up to 2.11
reduction of tracer uptake in gray matter by pre-blocking (SV2A [6]; preinjected LEV 30 mg/kg i.v., normalized terminal SUV): 57 ± 10%
SMILES: Cc1nccn1CN1C[C@@H](c2cc(F)cc([18F])c2)CC1=O [[^18F]SDM-16, (R)-4-(3-fluoro-5-(fluoro-^18F)phenyl)-1-((2-methyl-1H-imidazol-1-yl)methyl)pyrrolidin-2-one]
